According to ChEMBL document CHEMBL1201862, “PubChem BioAssay data set” (2004):
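How tested: cells in 96-well plates exposed to compound for 48 hours at five concentrations. GI50 marks 50% less growth.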 Activity calls are given as the source filed them. Rule as the data show it: active = GI50 up to about 1.1 µM and inactive = higher.

What was measured:
Experiment in all cases: inhibition of tumour cell growth, NCI panel, 48 h
[1] = tested on: 786-0
[2] = tested on: A498
[3] = tested on: A549
[4] = tested on: ACHN
[5] = tested on: BT-549
[6] = tested on: CAKI-1
[7] = tested on: CCRF-CEM
[8] = tested on: COLO 205
[9] = tested on: DU-145
[10] = tested on: EKVX
[11] = tested on: HCT-116
[12] = tested on: HCT-15
[13] = tested on: HOP-62
[14] = tested on: HOP-92
[15] = tested on: HT-29
[16] = tested on: Hs-578T
[17] = tested on: IGROV-1
[18] = tested on: K562
[19] = tested on: KM12
[20] = tested on: LOX IMVI
[21] = tested on: M14
[22] = tested on: MCF7
[23] = tested on: MDA-MB-231
[24] = tested on: MDA-MB-435
[25] = tested on: MDA-N
[26] = tested on: Malme-3M
[27] = tested on: NCI-H226
[28] = tested on: NCI-H23
[29] = tested on: NCI-H522
[30] = tested on: NCI/ADR-RES
[31] = tested on: OVCAR-3
[32] = tested on: OVCAR-4
[33] = tested on: OVCAR-5
[34] = tested on: OVCAR-8
[35] = tested on: PC-3
[36] = tested on: RPMI-8226
[37] = tested on: RXF 393
[38] = tested on: SF-268
[39] = tested on: SF-295
[40] = tested on: SF-539
[41] = tested on: SK-MEL-28
[42] = tested on: SK-MEL-2
[43] = tested on: SK-MEL-5
[44] = tested on: SK-OV-3
[45] = tested on: SN12C
[46] = tested on: SNB-19
[47] = tested on: SNB-75
[48] = tested on: SW-620
[49] = tested on: T47D
[50] = tested on: TK-10
[51] = tested on: U-251
[52] = tested on: UACC-257
[53] = tested on: UACC-62
[54] = tested on: UO-31

CC(C)(C)c1cc(C2COC(c3cc(C(C)(C)C)c(O)c(C(C)(C)C)c3)CO2)cc(C(C)(C)C)c1O (centres undefined)
GI50 [1]: > 100 µM (inactive)
GI50 [2]: > 100 µM (inactive)
GI50 [3]: > 100 µM (inactive)
GI50 [4]: > 100 µM (inactive)
GI50 [5]: > 100 µM (inactive)
GI50 [6]: > 100 µM (inactive)
GI50 [7]: > 100 µM (inactive)
GI50 [8]: 33.1 µM (inactive)
GI50 [9]: > 100 µM (inactive)
GI50 [10]: > 100 µM (inactive)
GI50 [11]: 51.6 µM (inactive)
GI50 [12]: > 100 µM
GI50 [13]: > 100 µM (inactive)
GI50 [14]: > 100 µM (inactive)
GI50 [15]: > 100 µM (inactive)
GI50 [16]: > 100 µM (inactive)
GI50 [17]: > 100 µM (inactive)
GI50 [18]: > 100 µM (inactive)
GI50 [19]: > 100 µM (inactive)
GI50 [20]: > 100 µM (inactive)
GI50 [21]: > 100 µM (inactive)
GI50 [22]: > 100 µM (inactive)
GI50 [23]: > 100 µM (inactive)
GI50 [24]: > 100 µM (inactive)
GI50 [25]: > 100 µM (inactive)
GI50 [26]: > 100 µM (inactive)
GI50 [27]: > 100 µM (inactive)
GI50 [28]: > 100 µM (inactive)
GI50 [29]: > 100 µM (inactive)
GI50 [30]: > 100 µM (inactive)
GI50 [31]: > 100 µM (inactive)
GI50 [32]: > 100 µM (inactive)
GI50 [33]: > 100 µM (inactive)
GI50 [34]: > 100 µM (inactive)
GI50 [35]: > 100 µM (inactive)
GI50 [36]: > 100 µM (inactive)
GI50 [37]: > 100 µM (inactive)
GI50 [38]: > 100 µM (inactive)
GI50 [39]: > 100 µM (inactive)
GI50 [40]: > 100 µM (inactive)
GI50 [41]: > 100 µM (inactive)
GI50 [42]: > 100 µM (inactive)
GI50 [43]: > 100 µM (inactive)
GI50 [44]: > 100 µM (inactive)
GI50 [45]: > 100 µM (inactive)
GI50 [46]: > 100 µM (inactive)
GI50 [47]: > 100 µM (inactive)
GI50 [48]: > 100 µM (inactive)
GI50 [49]: > 100 µM (inactive)
GI50 [50]: > 100 µM (inactive)
GI50 [51]: 90.4 µM (inactive)
GI50 [52]: > 100 µM (inactive)
GI50 [53]: > 100 µM (inactive)
GI50 [54]: > 100 µM (inactive)
